Laboratory results as given in patent publication US20160051536A1, “COMPOSITIONS TO ALLEVIATE PRESYSTEMIC METABOLISM OF OPIOIDS” (VIRGINIA COMMONWEALTH UNIVERSITY, priority 2013, published 2016).

System: UGT
Assay: Effect of inhibitors on buprenorphine-glucuronide formation in LS180 cells
Details: buprenorphine 10 μM, inhibitor 100 μM, 2 hours, vs control, p<0.05, n.d. = glucuronide not detected
Description: Unless otherwise indicated, the in vitro experiments described in the following section were conducted using human colon adenocarcinoma LS180 cells.
Human intestinal cells (LS180) were cultured in Dulbecco's modified Eagle's medium (DMEM) supplemented with 10% fetal bovine serum and 1% non-essential amino acids in microplates. […] The cells were rinsed with DPBS, aspirated, and the solutions (37° C.) were added to the cells and incubated for 2 hours. The reactions were stopped and protein was precipitated by adding 20% acetonitrile. After freezing (−80° C.) and thawing, samples were centrifuged and analyzed by HPLC using an Alltima HP C18 column (4.6×100 mm, 3 μm) with gradient elution (mobile phase A: acetonitrile; mobile phase B: 10% acetonitrile, 90% aqueous 25 mM ammonium acetate; 0-78% A) followed by detection by fluoresence (excitation 283 nm, emission 346 nm) and quantitation using Waters Empower 2 software. Results were analyzed by one-way ANOVA with Dunnett's post-test (control vs. inhibitors); asterisk designates p<0.05; n.d. designates not detected.

Row | Molecule | formation of buprenorphine glucuronide
1 | COc1cc(/C=C/C(=O)CC(=O)/C=C/c2ccc(O)c(OC)c2)ccc1O [curcumin] | not detected
2 | CCOc1cc(C2OCC(C)O2)ccc1O (stereo not shown) [ethyl vanillin propylene glycol acetal] | significantly decreased
3 | CCOc1cc(C=O)ccc1O [ethyl vanillin] | significantly decreased
4 | C=CCc1ccc(O)c(OC)c1 [eugenol] | significantly decreased
5 | COc1ccccc1O [guaiacol] | significantly decreased
6 | CC=Cc1ccc(O)c(OC)c1 [isoeugenol] | not detected
7 | C=CCc1ccc(O)c(-c2cc(CC=C)ccc2O)c1 [magnolol] | significantly decreased
8 | COC(=O)c1ccc(O)cc1 [methylparaben] | trend toward a decrease
9 | CCCOC(=O)c1cc(O)c(O)c(O)c1 [propyl gallate] | not detected
10 | CCCOC(=O)c1ccc(O)cc1 [propylparaben] | significantly decreased
11 | O=c1c(O)c(-c2ccc(O)c(O)c2)oc2cc(O)cc(O)c12 [quercetin] | not detected
12 | CC(=O)CCc1ccc(O)cc1 [rasketone] | significantly decreased
13 | Oc1ccc(C=Cc2cc(O)cc(O)c2)cc1 [resveratrol] | not detected
14 | COc1cc(C2Oc3cc([C@H]4Oc5cc(O)cc(O)c5C(=O)[C@@H]4O)ccc3OC2CO)ccc1O (stereo partly shown) [silybin] | significantly decreased
15 | COc1cc(C=O)ccc1O [vanillin] | significantly decreased
16 | COc1cc(CCC(C)=O)ccc1O [zingerone] | significantly decreased
17 | COc1c(O)cc2oc3cc(O)c(CC=C(C)C)c(O)c3c(=O)c2c1CC=C(C)C [α-mangostin] | significantly decreased
18 | pinoresinol | not detected

Same assay, conditions: buprenorphine 10 μM, single inhibitors 24 μM, pairs 12 μM each, triple 8 μM each, p<0.05

Row | Molecule | formation of buprenorphine glucuronide
19 | CC=Cc1ccc(O)c(OC)c1 [isoeugenol] | significantly inhibited
20 | CCCOC(=O)c1cc(O)c(O)c(O)c1 [propyl gallate] | significantly inhibited
21 | COc1cc(C=O)ccc1O [vanillin] | significantly inhibited

System: not given
Assay: not given
Details: in words; cited from earlier work

Row | Molecule | oral bioavailability
22 | C=CCN1CC[C@]23c4c5ccc(O)c4O[C@H]2C(=O)CC[C@@]3(O)[C@H]1C5 [naloxone] | low
